Laboratory results published in US20220008406A1, “USE OF NUCIFERIN AND LOTUS LEAF EXTRACT IN THE PREPARATION OF A MEDICAMENT FOR TREATING ATROPHIC GASTRITIS AND/OR BLOCKING TRANSFORMATION OF GASTRITIS INTO CANCER” (priority 2018, published 2022).
Entries after “also recorded” stand apart in the source; their conditions may differ.

Legend:
colon cancer = conditions: people who take aspirin for a long time; cited from earlier work
[1] = test system: rats with chronic atrophic gastritis; assay: Nuciferine treatment of rats with chronic atrophic gastritis with intestinal metaplasia induced by sodium deoxycholate and ammonia water; assay type: in vivo, SD rats; conditions: for pathological state of chronic atrophic gastritis, HE-stained gastric tissue sections: 4 weeks after 8 weeks modeling, vs model group
Text: An animal model of chronic atrophic gastritis induced by sodium deoxycholate and ammonia water was selected. After the model was successfully established, celecoxib and nuciferine were given by gavage.
The experiment: The experimental animals were from Beijing Weitong Lihua Laboratory Animal Technology Co., Ltd. Thirty SD rats with a specific pathogen free (SPF) grade of 200±20 g were selected, with half males and half males, and randomly divided into […]: normal control group, chronic atrophic gastritis (CAG) model group, the positive drug celecoxib intervention group and the nuciferine intervention group, with 6 rats in each group. The nuciferine was purchased from Chengdu Refines Biotechnology Co., Ltd., with a specification of 5 g and a purity of over 98%. Celecoxib was purchased from Beijing Bailingwei Technology Co., Ltd., with brand J&K, a specification of 1 g, and purity above 98%. Sodium deoxycholate was purchased from Amresco, USA, with a specification of 100 g. The rats in the model group, celecoxib intervention group and nuciferine intervention group were given sodium deoxycholate solution and ammonia to induce chronic atrophic gastritis. 20 mmol/L sodium deoxycholate was administered […] at a dose of 6 ml/kg, twice a week on an empty stomach, 0.1% ammonia water was drunk freely, and the model was continuously modeled for 8 weeks. […] After modeling, the celecoxib group and the nuciferine intervention group were given celecoxib 10 mg/kg, nuciferine 40 mg/kg, and 10 mg/kg by gavage administration, once a day. During the experiment, the rats' body weight and food intake were observed.
At the end of the dosing experiment, after the rats were sacrificed by dislocation, the stomach tissue was quickly taken out and prepared for pathological sectioning. The obtained gastric tissue was cut along the greater curvature of the stomach, washed with saline, blotted dry with filter paper, and fixed with formalin solution (10% formaldehyde solution). The sections were embedded, dehydrated by alcohol, and then made transparent with xylene. And then the sections were waxed and embed in paraffin. In the staining stage, the sections were soaked in xylene solution for 10 minutes each time for 3 times; then they were soaked in absolute ethanol and rinsed in tap water. Finally, the sections were stained with hematoxylin (to stain the nucleus) and eosin (to stain the cytoplasm), and the sections were mounted with neutral gum. Finally, the pathological changes of rat stomach tissue were observed under light microscope.

[2] = test system: gastric mucosal injury model rats; assay: Protection against gastric mucosal damage induced by absolute ethanol in rats; assay type: in vivo, SD rats; conditions: for congestion and bleeding of the gastric mucosa: then 1.0 mL absolute ethanol
Text: After continuous administration of […] and […] in rats, gastric mucosal damage was induced by absolute ethanol, and the gastric mucosal damage was observed under a microscope after dissection.
The experimental: The experimental animals were from Beijing Sibeifu Biotechnology Co., Ltd., and 30 SD rats of 200±20 g specific pathogen free (SPF) grade, male, were chosen and randomly divided into 5 groups: normal control group, the gastric mucosal injury model group, the nuciferine low-dose group, the nuciferine high-dose group and the lotus leaf extract group, as shown in Table 3. The low-dose nuciferine group, the high-dose nuciferine group and the lotus leaf extract group were administered intragastrically for 14 days, once a day. The nuciferine was purchased from Chengdu Refines Biotechnology Co., Ltd., with a specification of 5 g and a purity of over 98%. The lotus leaf extract was purchased from Hebei Chenguang Biotechnology Group Handan Co., Ltd., with a specification of 1 kg and a content of nuciferine of more than 0.4%. 1 hour after the rats in the low-dose nuciferine group, the high-dose nuciferine group and the lotus leaf extract group were given continuous administration, the rats in the control group and the model group were strictly fasted for 24 hours (with water available), and medicine was also prohibited during this period. Rats in the model group, the low-dose nuciferine group, the high-dose nuciferine group, and the lotus leaf extract group were given 1.0 mL of absolute ethanol per rat by intragastric administration; 1 hour after the completion of the modeling, the rats were sacrificed by blood sampling from the abdominal aorta, and the stomach was taken by cutting the abdomen, was injected with 10% formaldehyde solution, and fixed for 20 minutes, then the stomach was cut along the greater curvature of the same and was washed to remove the stomach contents, and a general observation under a dissecting microscope was conducted and the length of injury (mm) was measured.

[3] = test system: Drosophila gastrointestinal stem cells; assay: DSS-induced abnormal proliferation of Drosophila gastrointestinal stem cells (esg-GFP); assay type: in vivo
Text: The gastrointestinal tumorigenesis model reported in the publication “Cell Stem Cell” of “Cell” Press was select. Dextran sulfate sodium (DSS) was used to induce abnormal proliferation of Drosophila gastrointestinal stem cells to simulate the process of tumorigenesis. During the modeling period, nuciferine and lotus leaf extract were given.
The experimental: Dextran sulfate sodium (DSS) was used to induce abnormal proliferation of drosophila gastrointestinal stem cells to simulate the process of tumorigenesis. The experimental drosophila were esg-GFP purchased from Tsinghua Drosophila Center. GFP (green fluorescent protein driven by esg-Ga14) can specifically label intestinal stem cells and enteroblasts. A solution containing 20% sucrose, 3% DSS (average molecular weight 40 kDa) and 0.5% dimethyl sulfoxide (DMSO) was prepared, and the solution was mixed with the drosophila food, and the mixture was placed half-dry and was then used to feed the drosophila to perform modeling. During the modeling period, different groups were given nuciferine and lotus leaf extract. The nuciferine was purchased from Chengdu Refines Biotechnology Co., Ltd., with a specification of 5 g and a purity of over 98%. The lotus leaf extract was purchased from Hebei Chenguang Biotechnology Group Handan Co., Ltd., with a specification of 100 g and a nuciferine content of more than 0.4%. Sodium dextran sulfate was purchased from Beijing Zhongkekeao Biotechnology Co., Ltd. with a brand of mp and a specification of 50 g. The dimethyl sulfoxide was purchased from Amresco, USA, with a specification of 500 ml.
1) The Nuciferine Experiment Groups
Model control group: medium+0.5% DMSO+3% DSS
Low-dose nuciferine group: medium+0.5% DMSO+3% DSS+nuciferine 100 μM
High-dose nuciferine group: medium+0.5% DMSO+3% DSS+nuciferine 200 μM
2) The Lotus Leaf Extract Experiment Groups
Lotus leaf extract low-dose group: medium+0.5% DMSO+3% DSS+lotus leaf extract (containing 100 μM […])
Lotus leaf extract medium-dose group: medium+0.5% DMSO+3% DSS+lotus leaf extract (containing 200 μM […]) […]

MNNG-GES-1 cells = assay: MTT assay on MNNG-stimulated GES-1 cell model of transformation of gastritis to gastric cancer; assay type: cell-based, human; conditions: nuciferine 48 h
Text: The gastritis cancer transformation model used in this example formed by human gastric epithelial cells (GES-1) induced by chemical mutagens N-methyl N-nitronitrosoguanidine (MNNG) was as reported in the literature. The nuciferine was purchased from Chengdu Refines Biotechnology Co., Ltd., with a specification of 1 g and a purity of over 98%. The MNNG was purchased from Beijing Baiyiyi Chuang Biotechnology Co., Ltd., with a brand Tixiai and a specification of 5 g. The GES-1 cells were purchased from Shanghai Xuran Biotechnology Co., Ltd. The phosphate buffered saline (PBS) was purchased from Amresco, USA, with a specification of 10 L. The dimethyl sulfoxide (DMSO) was purchased from Amresco, USA, with a specification of 500 ml. The fetal bovine serum (FBS) was purchased from Amresco, USA, with a specification of 100 ml. The 3-(4,5-Dimethylthiazole-2)-2,5-diphenyltetrazolium bromide (MTT) was purchased from Shanghai Biyuntian Biotechnology Co., Ltd., with a specification of 500 mg.
GES-1 cells was planted in a 96-well plate (8000 cells/well, leave a row of blank holes, discard the edge holes and add an equal volume of PBS to reduce evaporation), the old solution was aspirated the next day, and 10% FBS containing no double antibody medium was added, […] MNNG was added to induce stimulation, culturing for 24 h in the dark, and discarding the culture medium containing MNNG. […]

Compound | reduction of incidence of colon cancer (colon cancer) [%] | pathological state of chronic atrophic gastritis, HE-stained gastric tissue sections ([1]; 10 mg/kg (celecoxib group; low-dose nuciferine group) by gavage once a day) | pathological state of chronic atrophic gastritis, HE-stained gastric tissue sections ([1]; 40 mg/kg (high-dose nuciferine group) by gavage once a day) | weight of rats ([1]; CAG model rats, therapeutic administration, dose groups not distinguished) | treatment of chronic atrophic gastritis and intestinal metaplasia of rats (pathological slices) ([1]; intervention groups, doses not distinguished) | gastric mucosal injury of rats compared with the model group ([2]; doses not distinguished) | congestion and bleeding of the gastric mucosa ([2]; nuciferine high-dose 40 mg/kg intragastric once a day 14 days) | congestion and bleeding of the gastric mucosa ([2]; nuciferine low-dose 20 mg/kg intragastric once a day 14 days) | abnormal proliferation of Drosophila gastrointestinal stem cells and mucosal ulceration ([3]; doses not distinguished) | proliferation of drosophila gastrointestinal stem cells ([3]; high-dose nuciferine 200 μM in medium + 0.5% DMSO + 3% DSS, 3-5 days at 25° C.) | abnormal proliferation of drosophila gastrointestinal stem cells ([3]; low-dose nuciferine 100 μM in medium + 0.5% DMSO + 3% DSS, 3-5 days at 25° C.) | IC50 (MNNG-GES-1 cells; Homo sapiens, GES1, GES-1 cells stimulated with MNNG 24 h, read-out: half inhibitory concentration (IC50) on cells transformed from gastritis to gastric cancer) [µM] | viability of MNNG-GES-1 cells (MNNG-GES-1 cells; P<0.05)
CC(=O)Oc1ccccc1C(=O)O [aspirin] | 24 |  |  |  |  |  |  |  |  |  |  |  | 
COc1cc2c3c(c1OC)-c1ccccc1C[C@H]3N(C)CC2 [nuciferine] |  | reduced to the state of chronic non-atrophic gastritis | best effect; also recorded: significantly reduced | increased the weight of rats | effectively treated | significantly improved; also recorded: improved compared with the model group | no congestion and bleeding | reduced | effectively inhibited | returned to normal | reduced | 92.7 | significantly inhibiting
